Legend:
Type in all cases: cell-based
MDA-MB-231 cells = test: Drug-induced DNA damage (γH2AX) by flow cytometry and immunofluorescence; settings: MDA-MB-231, 5 μM, 48 h
Experimental: (§1) Cell cultures were performed with the triple negative breast cancer cell line MDA-MB-231. Cells were grown in complete L15 Leibovitz medium and maintained at 37° C. in a humidified atmosphere at 0% Co2.
For immunostaining, cells are seeded on cover slips (Menzel, Braunschweig, Germany) at a concentration of 5×10^5 cells and incubated at 37° C. during 1 day. Cells are then treated with olaparib (5 μM)+/−OX401 (5 μM). 48 h after treatment, cells are fixed for 20 min in 4% paraformaldehyde/Phosphate-Buffered Saline (PBS 1×), permeabilized in 0.5% Triton X-100 for 10 min, blocked with 2% bovine serum albumin/PBS 1× and incubated with primary antibody for 1 h at 4° C. All secondary antibodies were used at a dilution of 1/200 for 45 min at Room Temperature (RT), and DNA was stained with 4′, 6-diamidino-2-phenylindole (DAPI). […]
Cells were treated with OX401 (5 μM) or Olaparib (5 μM) for 48 hours and then fixed and permeabilized with cold (−20° C.) 70% ethanol for at least 2 hours. […] Fluorescence intensities were determined with a Guava EasyCyte cytometer (Luminex). Data were analyzed using FlowJo software (Tree Star, Calif.).

[1] = tested on: homologous recombination repair pathway; test: Homologous recombination pathway activity (Rad51 foci); settings: MDA-MB-231, olaparib 5 μM alone, 48 h
Experimental: as §1
For immunostaining, cells are seeded on cover slips (Menzel, Braunschweig, Germany) at a concentration of 5×10^5 cells and incubated at 37° C. during 1 day. Cells are then treated with olaparib (5 μM)+/−OX401 (5 μM). 48 h after treatment, cells are fixed for 20 min in 4% paraformaldehyde/Phosphate-Buffered Saline (PBS 1×), permeabilized in 0.5% Triton X-100 for 10 min, blocked with 2% bovine serum albumin/PBS 1× and incubated with primary antibody for 1 h at 4° C. All secondary antibodies were used at a dilution of 1/200 for 45 min at Room Temperature (RT), and DNA was stained with 4′, 6-diamidino-2-phenylindole (DAPI). The following antibodies were used: primary monoclonal mouse anti-phospho-H2AX (Millipore, Guyancourt, France), anti-Rad51 rabbit antibody (Merk Millipore, Darmstadt, Allemagne), secondary goat anti-mouse IgG conjugated with Alexa-633 (Molecular Probes, Eugene, Oreg., USA) and secondary goat anti-rabbit IgG conjugated with Alexa-488 (Molecular Probes, Eugene, Oreg., USA).

U937 cells = test: Selection of acquired resistance by repeated treatment cycles
Experimental: Cell cultures were performed with the lymphoma cell line U937. Cells were grown in complete RPMI medium supplemented with 10% FBS and 1% Penicillin/Streptomycin and maintained at 37° C. in a humidified atmosphere at 5% CO2. This cell line was chosen according to its high sensitivity to both OX401 and talazoparib. For repeated cycles of the treatment to select resistance, U937 cells were seeded at appropriate densities (2.10^5 cells/mL) and incubated 24 h at 37° C. before addition of the drug at doses corresponding to 10-20% survival compared to non-treated cells. Resistances were selected under 2 μM talazoparib or 1.5 μM OX401. Cells were harvested on day 4 after treatment, washed, and counted after staining with 0.4% trypan blue (Eve™ counting slides, NanoEnTek). After counting, cells were seeded in appropriate culture plates, and allowed to recover (drug free period) for 3 to 7 days. Another cycle of treatment/recovery was then started for up to 4 cycles.

U937 parental cells = test: XTT survival, U937 parental cells; settings: Homo sapiens, U-937, 96 h, 4 days
Experimental: (§2) Cell cultures were performed with the lymphoma cell line U937. Cells were grown in complete RPMI medium supplemented with 10% FBS and 1% Penicillin/Streptomycin and maintained at 37° C. in a humidified atmosphere at 5% CO2. This cell line was chosen according to its high sensitivity to both OX401 and talazoparib. To assess the acquired resistances irreversibility, U937 parental or resistant cells were seeded in 96 well-plates (2.10^4 cells/well) and treated with increasing concentrations of talazoparib for 4 days. Following drug exposure, cell survival was measured using the XTT assay (Sigma Aldrich). Briefly, the XTT solution was added directly to each well containing cell culture and the cells incubated for 5 hours at 37° C. before reading the absorbance at 490 nm and 690 nm using a microplate reader (BMG Fluostar, Galaxy). Cell survival was calculated as the ratio of living treated cells to living mock-treated cells. The IC50 (which represents the dose at which 50% of the cells are viable) was calculated by a non-linear regression model using GraphPad Prism software (version 5.04) by plotting the percentage viability against the Log of the drug concentration on each cell line.

[2] = tested on: Ta11, Ta12 and Ta13 resistant populations; test: XTT survival, talazoparib-resistant U937 populations; settings: Homo sapiens, U-937, 96 h, 4 days
Experimental: as §2

Compound: O=C(c1cc(Cc2n[nH]c(=O)c3ccccc23)ccc1F)N1CCN(C(=O)C2CC2)CC1 [olaparib]
- γH2AX DSB biomarker (double-strand breaks accumulation) (MDA-MB-231 cells): high phosphorylation of histone H2AX
- γH2AX and Rad51 foci [1]: accumulation of γH2AX Foci that co-localize with Rad51 foci

Compound: Cn1ncnc1[C@H]1c2n[nH]c(=O)c3cc(F)cc(c23)N[C@@H]1c1ccc(F)cc1 [talazoparib]
- Cell survival after the first cycle (U937 cells; U937, talazoparib 2 μM): 10%
- Cell growth during drug-free amplification periods (U937 cells; U937, talazoparib 2 μM or OX401 1.5 μM, cycles of treatment): recovered
- Cell survival after the forth cycle of treatment (U937 cells; U937, talazoparib 2 μM, 33 days after treatment start): more than 50%
- IC50 (U937 parental cells): 2000 nM
- IC50 [2]: > 4000 nM

Reference: patent US20220054524A1, “NEW CONJUGATED NUCLEIC ACID MOLECULES AND THEIR USES” (ONXEO, priority 2018, published 2022)
